Assays:
Format in all cases: biochemical
[1] = biological target: EGFR L858R mutant (Homo sapiens (Human), UniProt P00533, L858R); experiment: HotSpot radiometric kinase assay, EGFR L858R; conditions: radiometric filter-binding, 10 μM ATP
[2] = biological target: EGFR WT (Homo sapiens (Human), UniProt P00533); experiment: HotSpot radiometric kinase assay, EGFR WT; conditions: radiometric filter-binding, 10 μM ATP
Protocol: (§1) Biochemical Assays for Inhibition of Wild-Type and Mutant EGFRs
(§2) The inhibitory activities against EGFR WT, EGFR Δ752-759 mutant, EGFR Δ746-750/T790M mutant, EGFR Δ746-750/C797S mutant, EGFR Δ746-750/T790M/C797S mutant. […] Briefly, specific kinase/substrate pairs along with required cofactors were prepared in reaction buffer; 20 mM Hepes pH 7.5, 10 mM MgCl2, 1 mM EGTA, 0.02% Brij35, 0.02 mg/ml BSA, 0.1 mM Na3VO4, 2 mM DTT, 1% DMSO. Compounds were delivered into the reaction, followed ˜20 minutes later by addition of a mixture of ATP (Sigma, St. Louis MO) and ^33P ATP (Perkin Elmer, Waltham MA) to a final concentration of 10 μM. Reactions were carried out at room temperature for 120 min, followed by spotting of the reactions onto P81 ion exchange filter paper (Whatman Inc., Piscataway, NJ). Unbound phosphate was removed by extensive washing of filters in 0.75% phosphoric acid. […] IC50 values and curve fits were obtained using Prism (GraphPad Software).

[3] = biological target: EGFR Δ746-750/T790M mutant (Homo sapiens (Human), UniProt P00533, DEL746-750/T790M); experiment: HotSpot radiometric kinase assay, EGFR Δ746-750/T790M; conditions: radiometric filter-binding, 10 μM ATP
Protocol: as §1, §2

[4] = biological target: EGFR L858R/T790M mutant (Homo sapiens (Human), UniProt P00533, L858R/T790M); experiment: HotSpot radiometric kinase assay, EGFR L858R/T790M; conditions: radiometric filter-binding, 10 μM ATP; read-out: EGFR (L858R/T790M)_IC50
[5] = biological target: EGFR (Δ746-750) (Homo sapiens (Human), UniProt P00533, DEL746-750); experiment: HotSpot radiometric kinase assay, EGFR Δ746-750; conditions: radiometric filter-binding, 10 μM ATP
[6] = biological target: EGFR L858R/T790M/C797S mutant (Homo sapiens (Human), UniProt P00533, C797S/L858R/T790M); experiment: HotSpot radiometric kinase assay, EGFR L858R/T790M/C797S; conditions: radiometric filter-binding, 10 μM ATP; read-out: EGFR (L858R/T790M/C797S/)_IC50
[7] = biological target: EGFR Δ746-750/C797S mutant (Homo sapiens (Human), UniProt P00533, C797S/DEL746-750); experiment: HotSpot radiometric kinase assay, EGFR Δ746-750/C797S; conditions: radiometric filter-binding, 10 μM ATP
Protocol: as §1, §2

[8] = biological target: EGFR Δ746-750/T790M/C797S mutant (Homo sapiens (Human), UniProt P00533, C797S/DEL746-750/T790M); experiment: HotSpot radiometric kinase assay, EGFR Δ746-750/T790M/C797S; conditions: radiometric filter-binding, 10 μM ATP
Protocol: as §1, §2

[9] = biological target: EGFR L858R/C797S mutant (Homo sapiens (Human), UniProt P00533, C797S/L858R); experiment: HotSpot radiometric kinase assay, EGFR L858R/C797S; conditions: radiometric filter-binding, 10 μM ATP

Chain of EGFR (Δ746-750) (P00533 other isoform, or with tags, fused parts or gaps del 1-668/del 746-750 limits assumed): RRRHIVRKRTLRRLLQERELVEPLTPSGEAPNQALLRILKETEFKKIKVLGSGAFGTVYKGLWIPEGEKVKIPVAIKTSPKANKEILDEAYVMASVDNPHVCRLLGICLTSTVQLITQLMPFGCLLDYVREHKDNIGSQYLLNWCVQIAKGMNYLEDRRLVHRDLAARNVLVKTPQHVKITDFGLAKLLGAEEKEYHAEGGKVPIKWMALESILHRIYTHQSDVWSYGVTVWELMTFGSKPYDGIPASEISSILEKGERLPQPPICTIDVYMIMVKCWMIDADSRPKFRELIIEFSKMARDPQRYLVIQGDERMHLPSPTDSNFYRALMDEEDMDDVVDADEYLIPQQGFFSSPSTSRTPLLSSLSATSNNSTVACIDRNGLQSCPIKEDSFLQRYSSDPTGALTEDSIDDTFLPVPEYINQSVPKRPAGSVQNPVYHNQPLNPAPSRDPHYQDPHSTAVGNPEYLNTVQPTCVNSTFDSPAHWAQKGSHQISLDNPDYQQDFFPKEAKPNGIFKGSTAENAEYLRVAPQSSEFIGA
Chain of EGFR L858R mutant (P00533 25-1210 L858R): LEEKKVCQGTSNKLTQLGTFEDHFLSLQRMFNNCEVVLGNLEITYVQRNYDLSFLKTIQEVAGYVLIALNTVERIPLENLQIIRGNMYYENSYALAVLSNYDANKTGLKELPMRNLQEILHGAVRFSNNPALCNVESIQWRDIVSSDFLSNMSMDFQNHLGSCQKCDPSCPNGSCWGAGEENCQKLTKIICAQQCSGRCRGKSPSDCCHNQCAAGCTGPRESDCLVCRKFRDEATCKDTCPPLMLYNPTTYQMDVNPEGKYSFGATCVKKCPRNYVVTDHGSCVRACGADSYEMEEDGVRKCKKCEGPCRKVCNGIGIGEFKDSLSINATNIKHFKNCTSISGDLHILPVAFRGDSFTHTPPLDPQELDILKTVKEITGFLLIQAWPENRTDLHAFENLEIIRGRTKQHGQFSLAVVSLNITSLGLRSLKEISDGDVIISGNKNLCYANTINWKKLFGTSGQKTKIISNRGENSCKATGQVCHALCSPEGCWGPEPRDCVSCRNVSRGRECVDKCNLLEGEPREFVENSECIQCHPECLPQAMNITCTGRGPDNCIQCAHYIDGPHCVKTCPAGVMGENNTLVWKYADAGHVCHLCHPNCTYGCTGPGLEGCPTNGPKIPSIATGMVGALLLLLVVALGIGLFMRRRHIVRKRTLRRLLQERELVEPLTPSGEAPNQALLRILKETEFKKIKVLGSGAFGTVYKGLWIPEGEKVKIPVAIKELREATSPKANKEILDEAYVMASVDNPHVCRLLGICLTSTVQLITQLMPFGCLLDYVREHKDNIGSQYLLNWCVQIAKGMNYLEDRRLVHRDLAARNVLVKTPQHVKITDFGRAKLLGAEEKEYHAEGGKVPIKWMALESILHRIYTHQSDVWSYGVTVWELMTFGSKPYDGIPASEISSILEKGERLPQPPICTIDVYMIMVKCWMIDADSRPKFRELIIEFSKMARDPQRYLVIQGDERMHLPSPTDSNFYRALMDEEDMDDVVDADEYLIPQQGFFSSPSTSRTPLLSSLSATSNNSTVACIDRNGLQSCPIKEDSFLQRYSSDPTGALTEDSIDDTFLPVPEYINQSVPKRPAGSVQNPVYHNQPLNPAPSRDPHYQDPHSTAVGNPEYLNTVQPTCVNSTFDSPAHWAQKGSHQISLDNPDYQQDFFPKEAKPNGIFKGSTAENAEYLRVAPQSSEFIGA
Chain of EGFR L858R/T790M/C797S mutant (P00533 25-1210 T790M/C797S/L858R): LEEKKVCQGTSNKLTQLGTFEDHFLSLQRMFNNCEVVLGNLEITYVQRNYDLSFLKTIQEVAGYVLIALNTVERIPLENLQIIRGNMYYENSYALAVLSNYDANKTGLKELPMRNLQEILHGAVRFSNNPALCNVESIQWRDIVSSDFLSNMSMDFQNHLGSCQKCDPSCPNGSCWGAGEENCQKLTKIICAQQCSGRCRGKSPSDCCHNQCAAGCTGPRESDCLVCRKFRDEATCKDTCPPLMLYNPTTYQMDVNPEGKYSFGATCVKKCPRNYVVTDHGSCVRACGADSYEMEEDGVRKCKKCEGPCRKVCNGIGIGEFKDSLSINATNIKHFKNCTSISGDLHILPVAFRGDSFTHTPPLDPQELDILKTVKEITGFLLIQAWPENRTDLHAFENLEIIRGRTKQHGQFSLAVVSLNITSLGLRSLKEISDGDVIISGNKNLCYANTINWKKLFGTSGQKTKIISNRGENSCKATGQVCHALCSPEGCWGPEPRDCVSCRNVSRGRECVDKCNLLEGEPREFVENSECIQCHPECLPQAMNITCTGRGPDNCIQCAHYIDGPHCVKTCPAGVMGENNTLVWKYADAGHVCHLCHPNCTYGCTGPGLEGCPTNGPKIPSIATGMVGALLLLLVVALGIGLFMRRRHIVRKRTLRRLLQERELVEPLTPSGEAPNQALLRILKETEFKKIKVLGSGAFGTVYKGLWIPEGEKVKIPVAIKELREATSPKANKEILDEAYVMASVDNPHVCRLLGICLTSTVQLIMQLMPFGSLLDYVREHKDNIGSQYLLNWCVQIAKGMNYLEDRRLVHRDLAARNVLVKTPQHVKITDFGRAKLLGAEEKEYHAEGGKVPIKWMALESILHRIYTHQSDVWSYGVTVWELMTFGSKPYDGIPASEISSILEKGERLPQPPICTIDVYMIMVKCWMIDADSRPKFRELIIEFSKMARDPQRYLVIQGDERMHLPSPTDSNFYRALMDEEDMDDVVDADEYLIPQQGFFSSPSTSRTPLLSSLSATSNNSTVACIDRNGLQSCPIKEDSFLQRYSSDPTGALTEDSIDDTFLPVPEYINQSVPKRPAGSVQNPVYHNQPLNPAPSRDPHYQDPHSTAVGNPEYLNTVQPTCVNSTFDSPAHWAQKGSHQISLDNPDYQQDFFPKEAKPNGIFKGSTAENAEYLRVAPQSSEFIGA
Chain of EGFR Δ746-750/C797S mutant (P00533 other isoform, or with tags, fused parts or gaps C797S/del 1-668/del 746-750 limits assumed): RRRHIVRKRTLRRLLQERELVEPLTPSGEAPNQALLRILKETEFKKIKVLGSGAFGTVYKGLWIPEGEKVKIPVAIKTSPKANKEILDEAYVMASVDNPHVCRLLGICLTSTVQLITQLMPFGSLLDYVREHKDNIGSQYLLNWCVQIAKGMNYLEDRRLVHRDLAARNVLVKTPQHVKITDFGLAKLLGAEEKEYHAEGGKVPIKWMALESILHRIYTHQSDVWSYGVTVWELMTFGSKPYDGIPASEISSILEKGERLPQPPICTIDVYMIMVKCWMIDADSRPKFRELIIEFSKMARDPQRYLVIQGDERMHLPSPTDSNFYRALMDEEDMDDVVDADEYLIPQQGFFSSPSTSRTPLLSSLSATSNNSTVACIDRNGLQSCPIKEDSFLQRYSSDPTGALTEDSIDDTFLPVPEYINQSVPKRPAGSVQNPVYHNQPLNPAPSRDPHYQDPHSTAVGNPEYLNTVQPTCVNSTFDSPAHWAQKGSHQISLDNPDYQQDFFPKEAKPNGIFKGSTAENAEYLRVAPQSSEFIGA
Chain of EGFR Δ746-750/T790M mutant (P00533 other isoform, or with tags, fused parts or gaps T790M/del 1-668/del 746-750 limits assumed): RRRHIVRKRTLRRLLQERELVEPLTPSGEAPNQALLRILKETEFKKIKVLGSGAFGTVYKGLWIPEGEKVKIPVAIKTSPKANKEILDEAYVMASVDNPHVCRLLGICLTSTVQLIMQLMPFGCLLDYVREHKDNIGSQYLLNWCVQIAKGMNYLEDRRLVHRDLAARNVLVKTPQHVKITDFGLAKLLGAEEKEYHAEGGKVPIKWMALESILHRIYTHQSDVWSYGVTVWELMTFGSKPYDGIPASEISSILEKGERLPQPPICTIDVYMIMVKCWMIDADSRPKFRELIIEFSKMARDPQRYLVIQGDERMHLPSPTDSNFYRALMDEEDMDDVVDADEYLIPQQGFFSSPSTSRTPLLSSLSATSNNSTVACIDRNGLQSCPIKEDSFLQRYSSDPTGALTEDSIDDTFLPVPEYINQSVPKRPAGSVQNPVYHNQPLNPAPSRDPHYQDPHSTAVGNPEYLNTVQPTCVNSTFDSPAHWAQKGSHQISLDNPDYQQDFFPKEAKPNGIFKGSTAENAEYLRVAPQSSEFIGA
Chain of EGFR Δ746-750/T790M/C797S mutant (P00533 other isoform, or with tags, fused parts or gaps T790M/C797S/del 1-668/del 746-750 limits assumed): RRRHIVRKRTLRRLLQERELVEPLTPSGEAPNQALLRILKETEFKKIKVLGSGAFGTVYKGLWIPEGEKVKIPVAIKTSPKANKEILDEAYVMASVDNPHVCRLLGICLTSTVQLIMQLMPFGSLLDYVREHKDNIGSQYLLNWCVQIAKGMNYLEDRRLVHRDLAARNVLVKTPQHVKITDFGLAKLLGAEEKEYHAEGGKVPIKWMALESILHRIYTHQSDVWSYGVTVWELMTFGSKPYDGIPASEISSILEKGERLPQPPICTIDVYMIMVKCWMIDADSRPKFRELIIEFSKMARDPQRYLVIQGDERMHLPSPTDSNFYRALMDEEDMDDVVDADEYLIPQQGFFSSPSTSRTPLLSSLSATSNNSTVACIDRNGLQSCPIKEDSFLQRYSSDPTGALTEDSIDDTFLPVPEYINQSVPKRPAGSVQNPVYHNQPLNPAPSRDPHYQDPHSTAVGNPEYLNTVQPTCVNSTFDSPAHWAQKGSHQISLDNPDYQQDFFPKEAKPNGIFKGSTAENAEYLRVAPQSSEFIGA

| Structure (SMILES) | IC50 [3] | IC50 [5] | IC50 [7] | IC50 [8] | also measured |
| --- | --- | --- | --- | --- | --- |
| Cn1ncc2c1OCCCOc1ccccc1/C=C/c1n[nH]c3cnc-2cc13 [Cpd. 1, (11E)-1-methyl-19,20-dihydro-1H,8H,18H-10,7,4-(ethan[1]yl[1,2]diylidene)pyrazolo[3,4-f][1,5,9,12,13]benzodioxatriazacyclooctadecine] | 2.1 nM | 6.8 nM | 4.8 nM | 0.22 nM | IC50 [1]: 29.1 nM; IC50 [2]: 46.4 nM; IC50 [4]: 4.1 nM; IC50 [6]: 15 nM; IC50 [9]: 55 nM |
| Cn1ncc2c1OCCCOc1ccccc1/C=C/c1n[nH]c3ccc-2nc13 [Cpd. 2, (18E)-8-methyl-2,8,11,12-tetrahydro-10H-3,5-ethenodipyrazolo[3,4-f:4′,3′-j][1,5,9]benzodioxazacyclopentadecine] | 22.9 nM | 49.1 nM | 16.2 nM | 29.3 nM | IC50 [1]: 258 nM; IC50 [2]: 554 nM; IC50 [4]: 301 nM; IC50 [6]: 692 nM; IC50 [9]: 595 nM |
| Cn1ncc2c1COCCOc1ccccc1/C=C/c1n[nH]c3cnc-2nc13 [Cpd. 16, (18E)-8-methyl-8,9,11,12-tetrahydro-2H-5,3-(azenometheno)dipyrazolo[3,4-f:4′,3′-j][1,4,9]benzodioxazacyclopentadecine] | 38.4 nM | 32.9 nM | 61.3 nM | 5.1 nM | – |
| CCc1nn(C)c2c1/C=C/c1n[nH]c3cnc(cc13)-c1cc(F)ccc1OCCN(C)C2=O [Cpd. 62, (18E)-17-ethyl-7-fluoro-13,15-dimethyl-2,12,13,15-tetrahydro-5,3-(azenometheno)dipyrazolo[3,4-f:3′,4′-j][1,4]benzoxazacyclopentadecin-14(11H)-one] | 4.1 nM | 45.5 nM | 5.7 nM | 0.5 nM | – |
| Cn1ncc2c1COCCOc1ccccc1/C=C/c1n[nH]c3cnc-2cc13 [Cpd. 63, (11E)-1-methyl-1,18,19,21-tetrahydro-8H-10,7,4-(ethan[1]yl[1,2]diylidene)pyrazolo[3,4-f][1,4,9,12,13]benzodioxatriazacyclooctadecine] | 2.8 nM | 14.9 nM | 7.7 nM | 0.2 nM | – |
| Cc1ccc2c(n1)/C=C/c1n[nH]c3cnc(nc13)-c1cnn(C)c1C(C)OCCO2 (stereo not drawn) [Cpd. 65, (18E)-8,9,16-trimethyl-8,9,11,12-tetrahydro-2H-5,3-(azenometheno)dipyrazolo[3,4-f:4′,3′-j]pyrido[2,3-n][1,4,9]dioxazacyclopentadecine] | 35.9 nM | 281 nM | 34.1 nM | 3.9 nM | – |
| CN(C)CCNC(=O)c1ccc2c(c1)/C=C/c1n[nH]c3cnc(cc13)-c1cnn(C)c1OCCCO2 [Cpd. 71] | – | 2.4 nM | – | – | IC50 [1]: 1.6 nM; IC50 [2]: 3.9 nM; IC50 [6]: 3.7 nM |
| CN(C)CCNC(=O)c1ccc2c(c1)OCCOCc1c(cnn1C)-c1cc3c(n[nH]c3cn1)/C=C/2 [Cpd. 81, (11E)-N-[2-(dimethylamino)ethyl]-1-methyl-1,18,19,21-tetrahydro-8H-10,7,4-(ethan[1]yl[1,2]diylidene)pyrazolo[3,4-f][1,4,9,12,13]benzodioxatriazacyclooctadecine-15-carboxamide] | – | 40.1 nM | – | – | IC50 [1]: 28.1 nM; IC50 [2]: 94.6 nM; IC50 [6]: 14.1 nM |
| CCNC(=O)c1ccc2c(c1)/C=C/c1n[nH]c3cnc(cc13)-c1cnn(C)c1COCCO2 [Cpd. 89, (11E)-N-ethyl-1-methyl-1,18,19,21-tetrahydro-8H-10,7,4-(ethan[1]yl[1,2]diylidene)pyrazolo[3,4-f][1,4,9,12,13]benzodioxatriazacyclooctadecine-14-carboxamide] | – | 23.8 nM | – | – | – |
| CN(C)CCNC(=O)c1ccc2c(c1)/C=C/c1n[nH]c3cnc(cc13)-c1cnn(C)c1COCCO2 [Cpd. 90, (11E)-N-[2-(dimethylamino)ethyl]-1-methyl-1,18,19,21-tetrahydro-8H-10,7,4-(ethan[1]yl[1,2]diylidene)pyrazolo[3,4-f][1,4,9,12,13]benzodioxatriazacyclooctadecine-14-carboxamide] | – | 16.8 nM | – | – | – |
| CN(C)CCCNC(=O)c1ccc2c(c1)/C=C/c1n[nH]c3cnc(cc13)-c1cnn(C)c1COCCO2 [Cpd. 91, (11E)-N-[3-(dimethylamino)propyl]-1-methyl-1,18,19,21-tetrahydro-8H-10,7,4-(ethan[1]yl[1,2]diylidene)pyrazolo[3,4-f][1,4,9,12,13]benzodioxatriazacyclooctadecine-14-carboxamide] | – | 19.7 nM | – | – | – |
| Cn1ncc2c1COCCOc1ccc(C(=O)O)cc1/C=C/c1n[nH]c3cnc-2cc13 [Cpd. 92, (11E)-1-methyl-1,18,19,21-tetrahydro-8H-10,7,4-(ethan[1]yl[1,2]diylidene)pyrazolo[3,4-f][1,4,9,12,13]benzodioxatriazacyclooctadecine-14-carboxylic acid] | – | 47.1 nM | – | – | – |

Now from value to molecule, other results behind:

| IC50 [3] | IC50 [5] | IC50 [7] | IC50 [8] | Structure (SMILES) | also measured |
| --- | --- | --- | --- | --- | --- |
| – | 13.6 nM | – | – | CN1CCC(NC(=O)c2ccc3c(c2)/C=C/c2n[nH]c4cnc(cc24)-c2cnn(C)c2COCCO3)CC1 [Cpd. 93, (11E)-1-methyl-N-(1-methylpiperidin-4-yl)-1,18,19,21-tetrahydro-8H-10,7,4-(ethan[1]yl[1,2]diylidene)pyrazolo[3,4-f][1,4,9,12,13]benzodioxatriazacyclooctadecine-14-carboxamide] | – |
| – | 17.6 nM | – | – | CN1CCC(CNC(=O)c2ccc3c(c2)/C=C/c2n[nH]c4cnc(cc24)-c2cnn(C)c2COCCO3)CC1 [Cpd. 94, (11E)-1-methyl-N-[(1-methylpiperidin-4-yl)methyl]-1,18,19,21-tetrahydro-8H-10,7,4-(ethan[1]yl[1,2]diylidene)pyrazolo[3,4-f][1,4,9,12,13]benzodioxatriazacyclooctadecine-14-carboxamide] | – |
| – | 139 nM | – | – | Cc1ccc2c(n1)/C=C/c1n[nH]c3cnc(cc13)-c1cnn(C)c1C(C)OCCO2 (stereo not drawn) [Cpd. 95, (18E)-8,9,16-trimethyl-8,9,11,12-tetrahydro-2H-5,3-(azenometheno)dipyrazolo[3′,4′:9,10;4″,3″:13,14][1,4]dioxacyclopentadecino[6,5-b]pyridine] | – |
| – | 740 nM | – | – | CN1CCN(C(=O)c2ccc3c(c2)/C=C/c2n[nH]c4cnc(cc24)-c2cnn(C)c2COCCO3)CC1 [Cpd. 96, (4-methylpiperazin-1-yl)[(11E)-1-methyl-1,18,19,21-tetrahydro-8H-10,7,4-(ethan[1]yl[1,2]diylidene)pyrazolo[3,4-f][1,4,9,12,13]benzodioxatriazacyclooctadecin-14-yl]methanone] | – |
| – | 9.7 nM | – | – | CN1CCC(NC(=O)c2ccc3c(c2)/C=C/c2n[nH]c4cnc(cc24)-c2cnn(C)c2OCCCO3)CC1 [Cpd. 97, (11E)-1-methyl-N-(1-methylpiperidin-4-yl)-19,20-dihydro-1H,8H,18H-10,7,4-(ethan[1]yl[1,2]diylidene)pyrazolo[3,4-f][1,5,9,12,13]benzodioxatriazacyclooctadecine-14-carboxamide] | – |
| – | 836 nM | – | – | Cc1nc2cc3c(n[nH]c13)/C=C/c1cc(F)ccc1OCCCOc1c-2cnn1C [Cpd. 98, (11E)-14-fluoro-1,6-dimethyl-19,20-dihydro-1H,8H,18H-10,7,4-(ethan[1]yl[1,2]diylidene)pyrazolo[3,4-f][1,5,9,12,13]benzodioxatriazacyclooctadecine] | – |
| 8530 nM | 84.4 nM | 11.3 nM | 3380 nM | CN1CCOCCN(c2ccc(F)c(Cl)c2)c2cc3c(n[nH]c3cn2)/C=C/c2cn(C)nc2C1=O [Cpd. 99, (17E)-6-(3-chloro-4-fluorophenyl)-12,15-dimethyl-2,7,8,11,12,15-hexahydro-6H-5,3-(azenometheno)dipyrazolo[3,4-f:3′,4′-j][1,4,14]oxadiazacyclohexadecin-13(10H)-one] | – |
| – | 24 nM | – | – | Cn1ncc2c1OCCCOc1ccc(F)cc1/C=C/c1n[nH]c3cnc-2cc13 [Cpd. 100, (11E)-14-fluoro-1-methyl-19,20-dihydro-1H,8H,18H-10,7,4-(ethan[1]yl[1,2]diylidene)pyrazolo[3,4-f][1,5,9,12,13]benzodioxatriazacyclooctadecine] | – |
